{"source": "patent US4970162A", "about": "“Human-mouse hybrid cell line expressing monocyte-macrophage properties” (The United States of America as represented by the …, priority 1985, dated 1990)", "key": {"macrophage chemotaxis": {"system": "macrophage chemotaxis", "conditions": "cited from earlier work"}, "WBC264-9 cells": {"system": "WBC264-9 cells", "assay": "chemotaxis of WBC264-9 cells in 48-well microchemotaxis chamber", "type": "cell-based, human-mouse hybrid", "protocol": "(§1) Chemotaxis by the cell lines was measured in a 48-well microchemotaxis chamber (Neuro Probe, Inc., Cabin John, Md.) with a 10 μm thick Nuclepore polycarbonate membrane coated with polyvinylpyrrolidone and containing 5 μm pores as described by Aksamit, et al., J. Immunol 126:2194 (1981). Upper wells contained 50,000 cells in MEM with 10% heat-inactivated fetal calf serum, and lower wells contained attractant in RPMI-1640 (GIBCO, Grand Island, N.Y.). […] EAMS was prepared as described by Aksamit et al., supra. Cells in the chemotaxis chamber were allowed to migrate for 4 hrs at 37° C. in an atmosphere of 5% CO2 and 95% air. The top cells were wiped off the filter, and cells on the bottom were stained in Diff-Quik (Harleco, Gibbstown, N.J.). Chemotaxis was quantified by measurement of the optical density of the migrated cells."}, "RAW264 cells": {"system": "RAW264 cells", "assay": "chemotaxis of RAW264 cells", "type": "cell-based", "conditions": "mouse RAW264 cells", "protocol": "as §1"}}, "data": [{"compound": "pertussis toxin", "values": [{"measurement": "inhibition of macrophage chemotaxis", "setting": "macrophage chemotaxis", "value": "potent inhibitor"}]}, {"compound": "CSCC[C@H](NC=O)C(=O)N[C@@H](CC(C)C)C(=O)N[C@@H](Cc1ccccc1)C(=O)O", "note": "[FMLP, N-formylmethionine-leucine-phenylalanine]", "values": [{"measurement": "chemotaxis to FMLP", "setting": "WBC264-9 cells; 30 nM FMLP, cell line 9 (WBC264-9), for 20 passages, FIG. 1", "value": "high level of chemotaxis"}, {"measurement": "concentration of optimal chemotactic response", "setting": "WBC264-9 cells; WBC264-9 cells, 4 hrs at 37° C., FIG. 2", "value": "approximately 3×10^-8 M"}, {"measurement": "chemotaxis to FMLP", "setting": "RAW264 cells", "value": "do not exhibit chemotaxis"}]}]}
